# Results taken from article PMC8347176, “Novel High Affinity Sigma-1 Receptor Ligands from Minimal Ensemble Docking-Based Virtual Screening” (International Journal of Molecular Sciences, 2021).
# Where a name gives a salt, the structure may show the parent alone.
# System: S1R
# Experiment: not given
# Design: method as in PMID 16463398
# Conditions: cited from earlier work
row,Compound,KiS2R/KiS1R
1,COc1cc(CCN2CCN(CCCc3ccccc3)CC2)ccc1OCCF [fluoroethyl analog of S1R agonist SA4503],14.1

# Molecular target: T1, sigma-1 receptor (S1R) (Cavia porcellus, UniProt Q60492)
# T1 construct: Guinea pig liver tissue preparation abundantly contains sigma-1 receptor as compared to other tissues; from tissue; host or cells: guinea pig liver membrane homogenate
# T1 sequence (Q60492 whole entry): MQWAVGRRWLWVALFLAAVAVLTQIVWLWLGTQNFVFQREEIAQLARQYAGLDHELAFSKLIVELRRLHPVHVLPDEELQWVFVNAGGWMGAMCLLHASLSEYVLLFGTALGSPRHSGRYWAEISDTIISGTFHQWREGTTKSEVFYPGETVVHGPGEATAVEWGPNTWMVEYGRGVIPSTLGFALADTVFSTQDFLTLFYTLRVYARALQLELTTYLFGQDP
# Experiment: Sigma-1 receptor competitive radioligand binding assay with [3H](+)-pentazocine in guinea pig liver membranes
# Conditions: read-out: Measured Ki
# Method: Male Wistar-Harlan rats (n = 10, 225–250 g) and guinea pigs (n = 10, 350–400 g) were handled according to the European Communities Council Directive (2010/63/EU) and to the Regulations on Animal Protection (40/2013. (II. 14.) Korm. r.) of Hungary. The researchers did the best effort to minimize the number of animals and their suffering. Preparation of guinea pig and rat liver homogenates was performed according to a previous method with a slight modification. Euthanized male guinea pig and rats were killed by decapitation, and their livers were removed rapidly. Minced fresh livers were homogenized in ice-cold homogenization buffer (10 mM NaH2PO4 pH 7.4, 0.32 M sucrose, 1 mM MgSO4, 10 μg/mL leupeptin, 1 μg/mL pepstatin A, 5 μg/mL soybean trypsin inhibitor, 0.5 mM EGTA, 1 mM AEBSF) using a Braun Teflon-glass homogenizer at the highest rpm for 30 s. The homogenate was centrifuged at 17,000× g for 10 min (4 °C). Supernatant was recentrifuged at 100,000× g for 60 min at 4 °C. The resulting pellet was resuspended in 10 volumes homogenization buffer, homogenized by a glass homogenizer and stored in aliquots at −80 °C. The protein content of the samples was measured by the Bradford method and samples were diluted in assay buffer to obtain the appropriate amount for the assay.
# Binding assays for the sigma-1 receptor were performed at 37 °C for 90 min in a 50 mM Tris–HCl binding buffer (pH 8.0) in plastic tubes in a total assay volume of 1 mL that contained 0.5 mg/mL of a membrane protein. […] The incubation was terminated by diluting the samples with an ice-cold wash buffer (50 mM of Tris–HCl, pH 8.0), followed by repeated washing and rapid filtration through Whatman GF/B glass fiber filters (Whatman Ltd., Maidstone, UK) presoaked with 0.1% polyethyleneimine. Filtration was performed with a 24-well Brandel Cell Harvester (Gaithersburg, MD, USA). Filters were air-dried and immersed into Ultima Gold MV scintillation cocktail, and then radioactivity was measured with a TRI-CARB 2100TR liquid scintillation analyzer (Packard, Perkin Elmer, Waltham, MA, USA).
# (§1) The results of the competition binding studies are reported as means ± S.E.M. of at least three independent experiments each performed in duplicate. In competition binding studies, the inhibitory constants (Ki) were calculated from the inflection points of the displacement curves using nonlinear least-square curve fitting and the Cheng–Prusoff equation, Ki = EC50/(1 + [ligand]/Kd). All data and curves were analyzed by GraphPad Prism 5.0 (San Diego, CA, USA).
row,Compound,Ki
1,"O=C(NCC1NCCc2c1[nH]c1ccccc21)OCc1ccccc1 (stereo not shown) [L9, N-Benzyloxycarbonyl-(2,3,4,9-tetrahydro-1H-pyrido[3,4-b]indol-1-yl)methanamine]",1720 nM
2,"CC1(C)C2CC(O)C(O)(CNCc3ccccc3)CC21 [L7, (1S,3R,4R,6R)-3-(benzylamino)methyl)-7,7-dimethylbicyclo[4.1.0]heptane-3,4-diol]",1380 nM
3,"NC(CC(=O)NCc1cccc(C(F)(F)F)c1F)c1ccccc1 (stereo not shown) [L2, 3-Amino-N-(2-fluoro-3-(trifluoromethyl)benzyl]-3-phenylpropanamide hydrochloride]",91 nM
4,"NN1C(=O)C2C3C=CC(C3)C2NC12CCN(Cc1ccccc1)CC2 (racemic) [L5, (±)-diendo-3′-amino-1-benzyl-5′,8′-methano-4′a,5′,8′,8′a-tetrahydrospiro[piperidine-4,2′(1′H)-quinazolin]-4′(3′H)-one]",463 nM
5,"CCOc1cc2c(cc1OCC)[C@H]1[C@H](CSc3ccc(Cl)cc3)CN1CC2 (relative stereo) [L12, (1R*,9bR*)-1-{[(4-Chlorophenyl)thio]methyl}-7,8-diethoxy-1,4,5,9b-tetrahydro-2H-azeto[2,1a]-isoquinoline]",3270 nM
6,"COc1cc2c(cc1OC)C(CCNCc1ccccc1)NCC2 (stereo not shown) [L1, N-Benzyl-6,7-dimethoxy-1,2,3,4-tetrahydro-1-isoquinolineethanamine dihydrochloride]",32 nM
7,"Cl.NC(CC(=O)NCc1cc(F)cc(C(F)(F)F)c1)c1ccccc1 (stereo not shown) [L4, 3-Amino-N-(3-fluoro-5-(trifluoromethyl)benzyl]-3-phenylpropanamide hydrochloride]",420 nM
8,"CCOc1cc2c(cc1OCC)[C@H]1CCN[C@@H](c3ccc(N(C)C)cc3)N1CC2 (relative stereo) [L10, (4R*,11bR*)-9,10-Diethoxy-4-[4-(dimethylamino)phenyl]-1,3,4,6,7,11b-hexahydro-2H-pyrimido[6,1-a]isoquinoline]",2150 nM
9,"CC(CN)C(=O)NCc1cccc(C(F)(F)F)c1F (stereo not shown) [L8, 3-Amino-N-(2-fluoro-3-(trifluoromethyl)benzyl]-2-methylpropanamide trifluoroacetate]",1530 nM
10,"COc1ccc(OCC(O)CN2CCc3ccccc3C2)cc1 (stereo not shown) [L3, 1-[(4-Methoxyphenoxy)methyl]-2-(1,2,3,4-tetrahydroisoquinolin-2-yl)ethanol]",110 nM
11,"Cn1c2c(c3ccccc31)CCNC2CNC(=O)OCc1ccccc1 (stereo not shown) [L6, N-Benzyloxycarbonyl-(9-methyl-2,3,4,9-tetrahydro-1H-pyrido[3,4-b]indol-1-yl)methanamine]",1040 nM

# Same assay, conditions: read-out: S1R Ki ± S.E.M.
row,Compound,Ki
1,"COCCCC/C(=N\OCCN)c1ccc(C(F)(F)F)cc1 [fluvoxamine, reference compound]",31 ± 3 nM

# Molecular target: T2, sigma-2 receptor (S2R) (Rattus norvegicus, UniProt Q5U3Y7)
# T2 construct: from tissue; host or cells: rat (male Wistar-Harlan) liver membrane homogenate
# T2 sequence (Q5U3Y7 1-176): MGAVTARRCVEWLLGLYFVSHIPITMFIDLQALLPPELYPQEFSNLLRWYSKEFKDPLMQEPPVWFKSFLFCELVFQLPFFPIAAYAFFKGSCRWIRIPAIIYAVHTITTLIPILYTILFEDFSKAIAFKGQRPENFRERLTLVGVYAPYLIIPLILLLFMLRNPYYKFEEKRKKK
# Experiment: Sigma-2 receptor competitive radioligand binding assay with [3H]DTG in rat liver membranes, S1R masked with 100 nM (+)-pentazocine
# Conditions: not given
# Method: Male Wistar-Harlan rats (n = 10, 225–250 g) and guinea pigs (n = 10, 350–400 g) were handled according to the European Communities Council Directive (2010/63/EU) and to the Regulations on Animal Protection (40/2013. (II. 14.) Korm. r.) of Hungary. The researchers did the best effort to minimize the number of animals and their suffering. Preparation of guinea pig and rat liver homogenates was performed according to a previous method with a slight modification. Euthanized male guinea pig and rats were killed by decapitation, and their livers were removed rapidly. […] The protein content of the samples was measured by the Bradford method and samples were diluted in assay buffer to obtain the appropriate amount for the assay.
# as §1
row,Compound,displacement of [3H]DTG (partial)
1,CC(C)=CCN1CC[C@]2(C)c3cc(O)ccc3C[C@H]1[C@H]2C [(+)-pentazocine],70–80%
2,"COCCCC/C(=N\OCCN)c1ccc(C(F)(F)F)cc1 [fluvoxamine, reference compound]",70–80%

# System: not given
# Experiment: not given
# Conditions: not given
row,Compound,melting point
1,"Cl.NC(CC(=O)NCc1cc(F)cc(C(F)(F)F)c1)c1ccccc1 (stereo not shown) [L4, 3-Amino-N-(3-fluoro-5-(trifluoromethyl)benzyl]-3-phenylpropanamide hydrochloride]",180 to 182 °C
